Molecules are shown by their SMILES.

This note sets out measurements from PMC6057649, “Development of NanoLuc-PEST expressing Leishmania mexicana as a new drug discovery tool for axenic- and intramacrophage-based assays” (PLoS Neglected Tropical Diseases, 2018).

In the assay the test system is NanoLuc-PEST expressing L. mexicana axenic amastigotes. In words: microbe, parasite or virus in culture. Type of assay: cell-based. As to conditions: 72 hours, relative to DMSO only control, n = 4.

In the case of `O=C(Nc1ccnc(-c2cccnc2)n1)c1cc(C(F)(F)F)cc(C(F)(F)F)c1` [MMV019838], the “Relative Bioluminescence (%)” value is listed as 125.18% (2 µM compound) and 86.78% (10 µM compound).

As for `Cc1nn(C)cc1C(C)Nc1nncc(-c2ccc(C(F)(F)F)cc2)n1` (stereo not shown) [MMV019993], the “Relative Bioluminescence (%)” value reads like this: (2 µM compound) 96.83%; (10 µM compound) 70.73%.

For `COc1cccc(CC(=O)N2CCC(n3c(C)nc4ccc(F)cc43)CC2)c1` [MMV020081], the “Relative Bioluminescence (%)” value runs as follows: (2 µM compound) 98.78%; (10 µM compound) 73.47%.

Turning to `CC1CC1C(=O)NC1CCN(CC2(c3ccccc3)CCCCC2)CC1` (stereo not shown) [MMV020120], the “Relative Bioluminescence (%)” value runs as follows: (2 µM compound) 92.92%; (10 µM compound) 99.97%.

Take `CNC(=O)c1cc(S(=O)(=O)N2CCN(c3ccccn3)CC2)cs1` [MMV020136]: the “Relative Bioluminescence (%)” value (2 µM compound) was 108.03% and the “Relative Bioluminescence (%)” value (10 µM compound) is 122.06%.

In the case of `Cc1cc(C(=O)Nc2ccc(-c3ccccc3)cc2)no1` [MMV020152], the “Relative Bioluminescence (%)” value (2 µM compound) is 89.71% and the “Relative Bioluminescence (%)” value (10 µM compound) is 108.81%.

On to `CC(C)NCC(=O)Nc1cccc(C(=O)Nc2cccc(C(F)(F)F)c2)c1` [MMV020165], for which the “Relative Bioluminescence (%)” value is 63.67% (2 µM compound) and 61.89% (10 µM compound).

Turning to `Cc1ccc(NC(=O)c2cc(S(=O)(=O)NC(C)(C)C)ccc2C)nc1` [MMV020289], the “Relative Bioluminescence (%)” value came out at 103.50% (2 µM compound) and 71.21% (10 µM compound).

For `CC(C(=O)N1CCCC1)N1CCN(S(=O)(=O)c2ccc(C(C)(C)C)cc2)CC1` (stereo not shown) [MMV020291], the “Relative Bioluminescence (%)” value is, setting by setting: (2 µM compound) 117.25%; (10 µM compound) 111.14%.

Regarding `Cc1nnc(NC(=O)c2cn(-c3ccccc3)nc2-c2ccccc2C)o1` [MMV020320], the “Relative Bioluminescence (%)” value reads like this: (2 µM compound) 47.21%; (10 µM compound) 0.21%.

Turning to `COc1ccccc1C(C)NCC(=O)Nc1cc(C(F)(F)F)ccc1Cl` (stereo not shown) [MMV020321], the “Relative Bioluminescence (%)” value was 118.65% (2 µM compound) and 131.13% (10 µM compound).

For the compound `CC1CCCN(C(=O)C(C)Nc2cc(Cl)ccc2N2CCOCC2)C1` (stereo not shown) [MMV020388], the “Relative Bioluminescence (%)” value by setting is: (2 µM compound) 121.02%; (10 µM compound) 143.84%.

For `CC(C)C(C(=O)Nc1ccc(S(=O)(=O)N(C)C)cc1)c1ccc(Cl)cc1` (stereo not shown) [MMV020391], the “Relative Bioluminescence (%)” value was 89.71% (2 µM compound) and 17.09% (10 µM compound).

As for `Cc1ccc(Oc2ccc(NC(=O)CNc3ccccc3N3CCCC3=O)cc2)cc1` [MMV020512], the “Relative Bioluminescence (%)” value (2 µM compound) was determined as 56.59% and the “Relative Bioluminescence (%)” value (10 µM compound) is reported as 56.11%.

For the compound `COc1ccccc1CNC(=O)c1cc(C2CC2)nc2c1cnn2C(C)C` [MMV020517], the “Relative Bioluminescence (%)” value by setting is: (2 µM compound) 97.70%; (10 µM compound) 63.10%.

Take `Cc1cc2ccccc2n1CC(=O)N1CC(C(=O)N2CCCCC2)Oc2ccccc21` (stereo not shown) [MMV020520]: the “Relative Bioluminescence (%)” value runs as follows: (2 µM compound) 108.71%; (10 µM compound) 127.42%.

Consider `O=C(NC1CC1)c1ccc(N2CCOc3ccc(Cl)cc32)s1` [MMV020537], for which the “Relative Bioluminescence (%)” value reads like this: (2 µM compound) 116.22%; (10 µM compound) 146.04%.

As for `CC(C)C(NC(=O)Cc1cccc2ccccc12)C(=O)Nc1cccc(C#N)c1` (stereo not shown) [MMV020591], the “Relative Bioluminescence (%)” value is on record as 87.56% (2 µM compound) and 94.51% (10 µM compound).

As to `Cc1noc(C)c1C(=O)N1CCCC(c2[nH]c3c(C)cccc3c2-c2ccncc2)C1` (stereo not shown) [MMV020623], the “Relative Bioluminescence (%)” value was found to be 68.14% (2 µM compound) and 86.96% (10 µM compound).

As for `COc1ccc(-c2cncc3ccc(C(=O)NCCCn4ccnc4)nc23)cc1` [MMV020670], the “Relative Bioluminescence (%)” value (2 µM compound) is 96.09% and the “Relative Bioluminescence (%)” value (10 µM compound) is reported as 97.66%.

For the compound `COc1ccc(Cl)cc1NC(=O)CN(C)C(=O)c1cnn(-c2ccccc2)n1` [MMV020710], the “Relative Bioluminescence (%)” value (2 µM compound) turned out to be 102.08% and the “Relative Bioluminescence (%)” value (10 µM compound) was determined as 128.98%.

`CC(C)(C)c1cc(C(=O)Nc2cccnc2)cc(C(=O)Nc2cccnc2)c1` [MMV020982]: the “Relative Bioluminescence (%)” value worked out at 109.38% (2 µM compound) and 93.07% (10 µM compound).

For `c1ccc(-c2nc(NC3CCCCC3)cc(C3CC3)n2)nc1` [MMV021013], the “Relative Bioluminescence (%)” value is 11.73% (2 µM compound) and 1.47% (10 µM compound).

As for `CO/C=C(/C(=O)OC)c1ccccc1Oc1cc(Oc2ccccc2C#N)ncn1` [MMV021057, Azoxystrobin], the “Relative Bioluminescence (%)” value is recorded as 62.63% (2 µM compound) and 55.66% (10 µM compound).

For `Cc1cc(NCC(C)C)c2[nH]nc(-c3ccccc3)c2n1` [MMV021375], the “Relative Bioluminescence (%)” value (2 µM compound) worked out at 68.90% and the “Relative Bioluminescence (%)” value (10 µM compound) amounted to 58.94%.

As to `Cc1cc(NCCc2ccccc2)nc(NC(=N)Nc2ccc(Cl)cc2)n1` [MMV021660], the “Relative Bioluminescence (%)” value runs as follows: (2 µM compound) 89.16%; (10 µM compound) 56.67%.

As to `CN1CCC(NCc2cccc(-c3ccc(S(=O)(=O)NCc4ccccc4)cc3)c2)CC1` [MMV022029], the “Relative Bioluminescence (%)” value runs as follows: (2 µM compound) 99.81%; (10 µM compound) 101.70%.

Consider `CCN(CC)CCCN1CCN(C(=O)c2cccc(-c3noc(C(F)(F)F)n3)c2)CC1` [MMV022236], for which the “Relative Bioluminescence (%)” value by setting is: (2 µM compound) 74.51%; (10 µM compound) 94.61%.

With `O=C(Nc1ccc(N2CCNCC2)cc1)c1ccn2ncc(-c3cccc(Cl)c3)c2n1` [MMV022478], the “Relative Bioluminescence (%)” value reads like this: (2 µM compound) 88.45%; (10 µM compound) 5.54%.

Take `c1ccc2c(c1)CN(CC1CC1)CC1(CCN(Cc3c[nH]c4cnccc34)CC1)O2` [MMV023183]: the “Relative Bioluminescence (%)” value turned out to be 103.26% (2 µM compound) and 84.53% (10 µM compound).

With `Cc1nc(-c2cccc(NCc3ccccc3)c2)[nH]c1C` [MMV023227], the “Relative Bioluminescence (%)” value runs as follows: (2 µM compound) 80.48%; (10 µM compound) 64.23%.

As to `Nc1nccc2ccc(-c3ccc4nccn4c3)cc12` [MMV023233], the “Relative Bioluminescence (%)” value reads like this: (2 µM compound) 106.85%; (10 µM compound) 120.49%.

As to `Nc1ncc(-c2cn[nH]c2)cc1-c1nc2cc(Cl)cnc2[nH]1` [MMV023370], the “Relative Bioluminescence (%)” value was 62.35% (2 µM compound) and 54.43% (10 µM compound).

Take `O=C(NC1CCN(c2ccnc3ccccc23)C1)c1cccc(C(F)(F)F)c1` (stereo not shown) [MMV023388]: the “Relative Bioluminescence (%)” value (2 µM compound) worked out at 84.10% and the “Relative Bioluminescence (%)” value (10 µM compound) was determined as 76.22%.

With `NS(=O)(=O)c1cccc(-c2ccc3ncc(N4CCOCC4)nc3c2)c1` [MMV023860], the “Relative Bioluminescence (%)” value (2 µM compound) worked out at 79.77% and the “Relative Bioluminescence (%)” value (10 µM compound) was 74.37%.

Turning to `CC(C)(C)c1cc(C(=O)N2CCN(c3nccnc3C#N)CC2)n(Cc2ccccc2)n1` [MMV023949], the “Relative Bioluminescence (%)” value reads like this: (2 µM compound) 80.37%; (10 µM compound) 52.45%.

Regarding `O=C(Nc1cccc(-c2ccc(NCCCN3CCCC3)nc2)c1)c1ccccc1` [MMV023953], the “Relative Bioluminescence (%)” value by setting is: (2 µM compound) 85.42%; (10 µM compound) 83.96%.

For the compound `c1cncc(NCc2ccc(-c3cc4ccncc4cc3OC3CCNCC3)s2)c1` [MMV023969], the “Relative Bioluminescence (%)” value reads like this: (2 µM compound) 76.39%; (10 µM compound) 74.16%.

Turning to `COc1ccc(-c2cnc3ccc(N4CCCC4)nn23)cc1OC` [MMV023985], the “Relative Bioluminescence (%)” value runs as follows: (2 µM compound) 57.95%; (10 µM compound) 46.63%.

In the case of `O=C(Nc1ccccc1)c1ccc(-c2cc3ccncc3cc2OC2CCNCC2)s1` [MMV024035], the “Relative Bioluminescence (%)” value was found to be 86.60% (2 µM compound) and 79.61% (10 µM compound).

Take `NS(=O)(=O)c1cncc(-c2ccc3nccc(-c4cn[nH]c4)c3n2)c1` [MMV024101]: the “Relative Bioluminescence (%)” value (2 µM compound) is recorded as 98.92% and the “Relative Bioluminescence (%)” value (10 µM compound) is 49.51%.

Take `Cc1ccc(S(=O)(=O)n2cc(-c3ccnc(N)c3)c3cc(Br)cnc32)cc1` [MMV024114]: the “Relative Bioluminescence (%)” value amounted to 103.63% (2 µM compound) and 69.99% (10 µM compound).

In the case of `CN(C)CCNC(=O)N1CCCN(c2ncnc3cc(-c4ccccc4)sc23)CC1` [MMV024195], the “Relative Bioluminescence (%)” value (2 µM compound) worked out at 89.61% and the “Relative Bioluminescence (%)” value (10 µM compound) is reported as 76.61%.

As to `Cc1ccc2[nH]c(C3CCCNC3)c(-c3ccncc3)c2c1` (stereo not shown) [MMV024311], the “Relative Bioluminescence (%)” value is, setting by setting: (2 µM compound) 109.56%; (10 µM compound) 88.36%.

Regarding `O=C(NC1CC1)c1ccc(N2CCC(Cc3ccccc3)CC2)nc1` [MMV024397], the “Relative Bioluminescence (%)” value (2 µM compound) is 92.24% and the “Relative Bioluminescence (%)” value (10 µM compound) is listed as 86.39%.

Regarding `O=C(Nc1cccc(Cl)c1)c1cnc(N2CCN(c3ccncc3)CC2)c(Cl)c1` [MMV024406], the “Relative Bioluminescence (%)” value runs as follows: (2 µM compound) 85.94%; (10 µM compound) 93.72%.

Turning to `CN(C(=O)c1cc2c(-c3cncnc3)cccc2[nH]1)c1ccccc1` [MMV024443], the “Relative Bioluminescence (%)” value by setting is: (2 µM compound) 64.75%; (10 µM compound) 32.60%.

Regarding `Cc1cccc(C(=O)Nc2ccnc(N(C)C3CCN(CC(C)C)CC3)c2)c1` [MMV024829], the “Relative Bioluminescence (%)” value worked out at 74.80% (2 µM compound) and 69.82% (10 µM compound).

As for `O=C(Nc1ccc(N2CCNCC2)nc1)c1oc(-c2ccccc2)nc1C(F)(F)F` [MMV024937], the “Relative Bioluminescence (%)” value reads like this: (2 µM compound) 68.74%; (10 µM compound) 69.28%.

`CS(=O)(=O)c1cccc(-c2cnc3[nH]cc(-c4ccc(CCC(=O)O)cc4)c3c2)c1` [MMV026020]: the “Relative Bioluminescence (%)” value reads like this: (2 µM compound) 94.58%; (10 µM compound) 94.82%.

Consider `Nc1nccc2ccc(Oc3ccncc3)cc12` [MMV026313], for which the “Relative Bioluminescence (%)” value is, setting by setting: (2 µM compound) 56.90%; (10 µM compound) 66.48%.

Regarding `CCn1ncc2c(NC3CCOCC3)c(CNC(=O)c3ccnn3C)c(C)nc21` [MMV026356], the “Relative Bioluminescence (%)” value turned out to be 76.21% (2 µM compound) and 65.05% (10 µM compound).

With `OCc1ccc(-c2cncc(Nc3cccc(Cl)c3)c2)cc1` [MMV026468], the “Relative Bioluminescence (%)” value is 116.14% (2 µM compound) and 104.46% (10 µM compound).
